14 compounds from patent US20210070735A1, “RIP1 INHIBITORY COMPOUNDS AND METHODS FOR MAKING AND USING THE SAME” (Rigel Pharmaceuticals, Inc., priority 2019, published 2021) can be followed below.

Each structure is given as a SMILES string.

One assay concerns the target T1, RIPK1 (Homo sapiens, UniProt Q13546).
T1 sequence (Q13546 1-671): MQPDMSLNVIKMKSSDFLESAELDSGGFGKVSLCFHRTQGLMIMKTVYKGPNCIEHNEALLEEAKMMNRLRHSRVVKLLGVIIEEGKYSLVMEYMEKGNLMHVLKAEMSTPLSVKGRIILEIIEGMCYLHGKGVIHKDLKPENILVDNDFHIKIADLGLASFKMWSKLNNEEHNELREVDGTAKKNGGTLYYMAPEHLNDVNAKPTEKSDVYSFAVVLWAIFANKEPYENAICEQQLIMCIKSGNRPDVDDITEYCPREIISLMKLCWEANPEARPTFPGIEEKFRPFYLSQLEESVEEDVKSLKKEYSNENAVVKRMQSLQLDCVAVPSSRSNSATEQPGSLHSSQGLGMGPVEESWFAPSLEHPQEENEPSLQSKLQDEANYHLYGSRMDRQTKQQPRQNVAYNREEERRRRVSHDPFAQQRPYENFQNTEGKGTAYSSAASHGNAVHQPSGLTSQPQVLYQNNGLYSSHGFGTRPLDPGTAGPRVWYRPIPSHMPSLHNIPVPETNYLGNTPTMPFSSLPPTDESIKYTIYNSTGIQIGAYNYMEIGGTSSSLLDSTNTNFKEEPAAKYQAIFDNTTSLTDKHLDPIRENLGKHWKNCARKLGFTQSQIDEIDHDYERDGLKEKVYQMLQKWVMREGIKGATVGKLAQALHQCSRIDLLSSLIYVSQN
The assay is described as follows: RIPK1 ADP-Glo biochemical kinase assay. The conditions noted are these: 30 min at 30° C. As for the experimental part: The final reaction volume was 5.0 μl.
Adding 5 μl of ADP-Glo™ terminated the reaction.
On the technique in general: ADP-Glo turns the ADP formed in a reaction into a luminescent signal.

In a further assay the target is T2, murine RIP1 (Mus musculus, UniProt Q60855).
T2 construct: U937 and L929 cells were obtained from the American Type Culture Collection; host or cells: L929
T2 sequence (Q60855 1-656): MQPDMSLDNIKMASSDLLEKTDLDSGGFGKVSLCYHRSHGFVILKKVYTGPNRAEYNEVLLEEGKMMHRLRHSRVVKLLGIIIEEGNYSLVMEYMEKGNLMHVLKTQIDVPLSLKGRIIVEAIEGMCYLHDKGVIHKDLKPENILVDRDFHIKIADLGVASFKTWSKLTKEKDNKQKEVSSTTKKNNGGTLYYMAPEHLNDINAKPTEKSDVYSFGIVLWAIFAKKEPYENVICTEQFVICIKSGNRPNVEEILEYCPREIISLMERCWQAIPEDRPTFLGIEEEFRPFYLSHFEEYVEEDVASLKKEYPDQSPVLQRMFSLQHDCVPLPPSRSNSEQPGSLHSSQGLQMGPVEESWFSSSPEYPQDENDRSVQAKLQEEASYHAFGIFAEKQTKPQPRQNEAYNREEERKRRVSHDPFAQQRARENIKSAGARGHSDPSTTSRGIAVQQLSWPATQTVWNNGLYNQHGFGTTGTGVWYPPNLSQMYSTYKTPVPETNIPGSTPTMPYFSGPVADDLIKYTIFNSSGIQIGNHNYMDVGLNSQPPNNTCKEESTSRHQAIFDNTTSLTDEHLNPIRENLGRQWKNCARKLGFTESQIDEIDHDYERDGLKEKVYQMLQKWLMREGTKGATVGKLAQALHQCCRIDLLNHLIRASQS
In words: L929 cell necroptosis assay (TNFa + zVAD, CellTiter-Glo). The class given is cell-based. As for the experimental part:
(§1) In this example, U937 and L929 cells were exposed to compounds of the present disclosure and a cell necroptosis assay was conducted to evaluate the compounds' activity against human RIP1 and murine RIP1.
(§2) U937 and L929 cells were obtained from the American Type Culture Collection (Manassa, Va., USA). Both cells were maintained in logarithmic growth phase in complete RPMI 1640 media (Sigma, ST Louis, Mo., USA) supplemented with 10% fetal bovine serum (Sigma, ST Louis, Mo., USA) at 37° C. with 5% CO2. For necroptosis assay, L929 cells were plated for 18 h in 100 µL/well medium at 10K cells/well in Costar 96-well black clear-bottom plates (Fisher Scientific, Hampton, N.H., USA); U937 cells were plated on the day of the assay in 50 µL/well medium containing 60 uM zVAD-fmk (Lonza, Basel, Switzerland) at 50K cells/well. Medium from L929 cells were removed from the 96-well plates and replaced with 50 µL/well new medium containing 40 uM zVAD-fmk. Each compound of the present disclosure evaluated in this example was serially diluted in DMSO from 2.5 mM in 4-fold dilutions, and then diluted 1:125 in complete medium. 50 µL/well 2× of the compound was then added to the cells in the plates. The cells were pre-incubated with the compound for 1 hour at 37° C. with 5% CO2 and before addition of 10 µL/well 11×TNFa (Peprotech, Rocky Hill, N.J., USA) to give a final concentration of 2 ng/mL for TNFa. The relative amount of necroptosis cells was determined by luminescent using a Wallac Victor2 Luminometer (PerkinElmer, Waltham, Mass., USA) and a CellTiter-Glo® Luminescent Cell Viability Reagent Assay (Promega, Madison, Wis., USA) added per manufacturer instructions after 18 hours of TNFa stimulation at 37° C. with 5% CO2.Results from this example are summarized in Table 2. This example establishes that embodiments of the compounds described herein have unexpectedly potent activity against human RIP1 and murine RIP1, which allows their assessment in in vivo mouse models of disease.

Another assay concerns the target T3, human RIP1 (Homo sapiens, UniProt Q13546).
T3 construct: U937 and L929 cells were obtained from the American Type Culture Collection; host or cells: U937
T3 sequence (Q13546 1-671): T1 sequence (Q13546 1-671)
In words: U937 cell necroptosis assay (TNFa + zVAD, CellTiter-Glo). The format is cell-based. The note with it: U937 Zvad TNF CTG Recovery, U937 cells, TNFa 2 ng/mL + zVAD-fmk, 18 hours. On the procedure:
as §1, §2

As for `CN1C(=O)C(NC(=O)c2n[nH]c(Cc3ccccc3)n2)CCc2ccc(C#Cc3ccccn3)cc21` (racemic) [Compound I-20, (±)-5-Benzyl-N-(1-methyl-2-oxo-8-(pyridin-2-ylethynyl)-2,3,4,5-tetrahydro-1H-benzo[b]azepin-3-yl)-1H-1,2,4-triazole-3-carboxamide], the IC50 at RIPK1 was 37 nM; on murine RIP1 it was 8.5 nM; at human RIP1 it was 3.8 nM.
Regarding `CN1C(=O)C(NC(=O)c2cc(Oc3ccccc3)ccn2)CCc2ccc(C#CC(C)(C)O)cc21` (racemic) [Compound I-24, (±)-N-(8-(3-Hydroxy-3-methylbut-1-yn-1-yl)-1-methyl-2-oxo-2,3,4,5-tetrahydro-1H-benzo[b]azepin-3-yl)-4-phenoxypicolinamide], the half-inhibitory concentration (IC50) on RIPK1 came to 58.1 nM; on murine RIP1, 13 nM; at human RIP1, 1.9 nM.
The like results for `[2H]C([2H])([2H])N1C(=O)C(NC(=O)c2cc(Oc3ccccc3)ccn2)CCc2ccc(N3CC4(CCOCC4)C3)cc21` (racemic) [Compound I-29, (±)-N-(1-(Methyl-d3)-2-oxo-8-(7-oxa-2-azaspiro[3.5]nonan-2-yl)-2,3,4,5-tetrahydro-1H-benzo[b]azepin-3-yl)-4-phenoxypicolinamide] were, in that order, 41.3 nM, 1420 nM and 6.3 nM.
For the compound `CN1C(=O)C(NC(=O)c2cc(Oc3ccccc3)ccn2)CCc2ccc(N3CCC4(CCOCC4)CC3)cc21` (racemic) [Compound I-27, (±)-N-(1-Methyl-2-oxo-8-(3-oxa-9-azaspiro[5.5]undecan-9-yl)-2,3,4,5-tetrahydro-1H-benzo[b]azepin-3-yl)-4-phenoxypicolinamide], the results for the IC50 against RIPK1, on murine RIP1 and on human RIP1 were 46.4 nM, 641 nM and 4.8 nM, respectively.
The like results for `CN1C(=O)C(NC(=O)c2n[nH]c(Cc3ccccc3)n2)CCc2ccc(N3CCC4(CCOCC4)CC3)cc21` (racemic) [Compound I-13, (±)-5-Benzyl-N-(1-methyl-2-oxo-8-(3-oxa-9-azaspiro[5.5]undecan-9-yl)-2,3,4,5-tetrahydro-1H-benzo[b]azepin-3-yl)-1H-1,2,4-triazole-3-carboxamide] were, in that order, 373 nM, 94.9 nM and 2.1 nM.
`CN1C(=O)[C@@H](NC(=O)c2n[nH]c(Cc3ccccc3)n2)CCc2ccc(C#CC(C)(C)O)cc21` [Compound I-10, (S)-5-Benzyl-N-(8-(3-hydroxy-3-methylbut-1-yn-1-yl)-1-methyl-2-oxo-2,3,4,5-tetrahydro-1H-benzo[b]azepin-3-yl)-1H-1,2,4-triazole-3-carboxamide]: the values for the half-inhibitory concentration (IC50) at RIPK1, at murine RIP1 and on human RIP1 were 39.2 nM, 37.8 nM and 1.7 nM, respectively.
As to `CN1C(=O)C(NC(=O)c2n[nH]c(Cc3ccccc3)n2)CCc2ccc(N3CC4(CCCCC4)C3)cc21` (racemic) [Compound I-12, (±)-5-Benzyl-N-(1-methyl-2-oxo-8-(2-azaspiro[3.5]nonan-2-yl)-2,3,4,5-tetrahydro-1H-benzo[b]azepin-3-yl)-1H-1,2,4-triazole-3-carboxamide], the 50% inhibitory concentration (IC50) worked out at 444 nM against RIPK1, 43.2 nM on murine RIP1 and 5.2 nM on human RIP1.
Regarding `[2H]C([2H])([2H])N1C(=O)C(NC(=O)c2cc(Oc3ccccc3)ccn2)CCc2ccc(C#CC(C)(C)O)cc21` (racemic) [Compound I-28, (±)-N-(8-(3-Hydroxy-3-methylbut-1-yn-1-yl)-1-(methyl-d)-2-oxo-2,3,4,5-tetrahydro-1H-benzo[b]azepin-3-yl)-4-phenoxypicolinamide], the half-inhibitory concentration (IC50) turned out to be 32.2 nM against RIPK1, 20.9 nM at murine RIP1 and 2.4 nM on human RIP1.
With `CN1C(=O)C(NC(=O)c2cc(Oc3ccccc3)ccn2)CCc2ccc(N3CC4(CCOCC4)C3)cc21` (racemic) [Compound I-31, (±)-N-(1-Methyl-2-oxo-8-(7-oxa-2-azaspiro[3.5]nonan-2-yl)-2,3,4,5-tetrahydro-1H-benzo[b]azepin-3-yl)-4-phenoxypicolinamide], the half-maximal inhibitory concentration (IC50) was 54 nM on RIPK1, 1680 nM on murine RIP1 and 17.6 nM at human RIP1.
In the same order, the values of `CN1C(=O)[C@@H](NC(=O)c2n[nH]c(Cc3ccccc3)n2)CCc2ccc(C#CC(C)(C)C)cc21` [Compound I-21, (S)-5-Benzyl-N-(8-(3,3-dimethylbut-1-yn-1-yl)-1-methyl-2-oxo-2,3,4,5-tetrahydro-1H-benzo[b]azepin-3-yl)-1H-1,2,4-triazole-3-carboxamide] are 62.4 nM, 25.3 nM and 13.4 nM.
For the compound `CN1C(=O)C(NC(=O)c2n[nH]c(Cc3ccccc3)n2)CCc2ccc(CN3CCn4ncnc4C3)cc21` (racemic) [Compound I-8, (±)-5-Benzyl-N-(8-((5,6-dihydro-[1,2,4]triazolo[1,5-a]pyrazin-7(8H)-yl)methyl)-1-methyl-2-oxo-2,3,4,5-tetrahydro-1H-benzo[b]azepin-3-yl)-1H-1,2,4-triazole-3-carboxamide], the results for the half-inhibitory concentration (IC50) against RIPK1, at murine RIP1 and at human RIP1 were 378 nM, 5440 nM and 9.3 nM, respectively.
As to `CN1C(=O)[C@@H](NC(=O)c2n[nH]c(Cc3ccccc3)n2)CCc2ccc(C#Cc3cccnc3)cc21` [Compound I-18, (S)-5-Benzyl-N-(1-methyl-2-oxo-8-(pyridin-3-ylethynyl)-2,3,4,5-tetrahydro-1H-benzo[b]azepin-3-yl)-1H-1,2,4-triazole-3-carboxamide], the IC50 at RIPK1 is 23.4 nM; at murine RIP1 it was 5.9 nM; at human RIP1, 3.2 nM.
Turning to `CN1C(=O)C(NC(=O)n2cc(Cc3ccccc3)cn2)CCc2ccc(N3CC4(CCOCC4)C3)cc21` (racemic) [Compound I-23, (±)-4-Benzyl-N-(1-methyl-2-oxo-8-(7-oxa-2-azaspiro[3.5]nonan-2-yl)-2,3,4,5-tetrahydro-1H-benzo[b]azepin-3-yl)-1H-pyrazole-1-carboxamide], the IC50 against RIPK1 was 61.2 nM; at murine RIP1 it was 212 nM; at human RIP1 it was 1.7 nM.
Consider `CN1C(=O)[C@@H](NC(=O)c2ccn(Cc3ccccc3)n2)CCc2ccc(N3CC4(CCOCC4)C3)cc21` [Compound I-32, (S)-1-Benzyl-N-(1-methyl-2-oxo-8-(7-oxa-2-azaspiro[3.5]nonan-2-yl)-2,3,4,5-tetrahydro-1H-benzo[b]azepin-3-yl)-1H-pyrazole-3-carboxamide], for which the 50% inhibitory concentration (IC50) worked out at 38.8 nM against RIPK1, 182 nM at murine RIP1 and 2.7 nM on human RIP1.

As a reminder, the IC50 is the point on the concentration scale where inhibition reaches its midpoint.
